From patent US20160038563A1, “MOLECULAR TARGETS FOR HEALING OR TREATING WOUNDS” (University College Cardiff Consultants Limited, priority 2010, published 2016)
“Also recorded” adds a separate entry of the source.

Tests used:
HaCaT cells [1] = assay: ECIS cell adhesion assay; assay type: cell-based, human
Description: (§1) • 1. Cells and Human keratinocytes and melanoma Cells (HaCaT-from The German Cancer Institute/Cell Service, Germany and A431—from ATCC), human vascular endothelial cell, HECV (from Interlab, Italy) were used. Recombinant human HGF was from the research laboratory. nWASP inhibitors, Wiskostatin and 187-1 were from Merck Pharmaceuticals and TOCRIS, respectively. Tissue collection and preparation of RNA/cDNA bank from human wound/skin tissues. Fresh tissues from abnormal/chronic wounds (n=14), acute wounds (n=10) and normal skin from healthy volunteers (n=10) were collected under an approval from the local ethical committee (Ethical approval ID: 05/WSE03/92) and stored in −80° C. until use. Written informed consent was obtained from each patient who agreed for a biopsy to be taken. Tissues were frozen sectioned on a cryostat (Leica). A portion of the sections were kept for histological analysis. Approximate 20 sections were pooled and homogenised using a hand-held homogenizer using a procedure to extract RNA from the tissues. RNA extracted from the tissues was quantified and cDNA was subsequently generated using a RT kit. Abnormal/chronic wound tissues were from patients with abnormal/chronic leg ulcers. Acute wound tissues were obtained from patients with acute surgical wounds after undergoing excision of pilonidal disease. Normal tissues were from normal volunteer's normal skin. • 2. Analysis of nWASP gene transcripts was carried out using conventional and quantitative real time PCR (Icycler IQ, Bio-Rad) on human wound and skin tissues and cells. […] The study adopted the Ampliflor quantitation technology, in which one set of gene specific primers and a Uniprimer probes were used, in combination with quantitative PCR master mix. […] An internal standard was employed for quantitation purpose. […] The first was recorded immediately after plating of the cells into each well at 3 frequencies: 400 Hz, 4,000 Hz, and 40,000 Hz. […]

HaCaT cells [2] = assay: ECIS cell migration assay (electric wounding) and micromotion; assay type: cell-based, human; conditions: for resistance following wounding (migration): measured at 400 Hz; for cell migration of transfected HaCaT cells: vs wild type HaCaT, electric wounding, ECIS
Description: • 1. Cells and Human keratinocytes and melanoma Cells (HaCaT-from The German Cancer Institute/Cell Service, Germany and A431—from ATCC), human vascular endothelial cell, HECV (from Interlab, Italy) were used. Recombinant human HGF was from the research laboratory. nWASP inhibitors, Wiskostatin and 187-1 were from Merck Pharmaceuticals and TOCRIS, respectively. Tissue collection and preparation of RNA/cDNA bank from human wound/skin tissues. Fresh tissues from abnormal/chronic wounds (n=14), acute wounds (n=10) and normal skin from healthy volunteers (n=10) were collected under an approval from the local ethical committee (Ethical approval ID: 05/WSE03/92) and stored in −80° C. until use. Written informed consent was obtained from each patient who agreed for a biopsy to be taken. Tissues were frozen sectioned on a cryostat (Leica). A portion of the sections were kept for histological analysis. Approximate 20 sections were pooled and homogenised using a hand-held homogenizer using a procedure to extract RNA from the tissues. RNA extracted from the tissues was quantified and cDNA was subsequently generated using a RT kit. Abnormal/chronic wound tissues were from patients with abnormal/chronic leg ulcers. Acute wound tissues were obtained from patients with acute surgical wounds after undergoing excision of pilonidal disease. Normal tissues were from normal volunteer's normal skin. • 2. Analysis of nWASP gene transcripts was carried out using conventional and quantitative real time PCR (Icycler IQ, Bio-Rad) on human wound and skin tissues and cells. For conventional PCR, primers used were: NWASPF8 (5′agtccctatcactttcctc′3) (SEQ ID NO 1) and NWASPR8 (5′[…]′3) (SEQ ID NO 2) and NWASPF9 (5′[…]′3) (SEQ ID NO 3) and NWASPR9 (5′[…]′3) (SEQ ID NO 4). For Q-PCR primers used were nWASPF1 and NWASPZR1 (5′[…]′3) (SEQ ID NO 5) and (5′[…]′3) (SEQ ID NO 6). • 3. The study adopted the Ampliflor quantitation technology, in which one set of gene specific primers and a Uniprimer probes were used, in combination with quantitative PCR master mix. The reaction was carried out using ICycler^IQ (Bio-Rad). An internal standard was employed for quantitation purpose. In all the assays, GAPDH and actin were amplified and used as the house keeping controls. Levels of a specific gene was normalised to the expression level of GAPDH in the respective sample for example, nWASP, GAPDH and actin transcripts (mRNA) were measure in the same sample. nWASP was then normalised to GAPDH. • 4. Evaluation of cells response to wound stress after n-WASP is targeted. Here, an in vitro cell model, based on the ECIS system, was adopted. Briefly, cells were allowed to sit in the electric arrays and an 8E10 format was used. Cells in fixed number and fixed volume of culture medium were added into each of the respective wells, which had either control medium or a specific inhibitor to N-WASP, namely Wiskostatin or 187-1. In selected wells, a cell migration inducer, HGF was also included in the absence or presence of the nWASP inhibitors. Cells were investigated for the following functions: the adhesiveness to the matrix surface and the migration capacity. The first was recorded immediately after plating of the cells into each well at 3 frequencies: 400 Hz, 4,000 Hz, and 40,000 Hz. The frequencies were chosen following a frequency scanning (FIG. 3). Two main cell functions were thus tested here: the adhesiveness of the cells to matrix and cell migration. • 5. Creation of cell models. We have created a new cell model, based on a human keratinocyte cell line, HaCaT, which expressed high levels of n-WASP. By using anti-nWASP transgenes, we successfully knocked out the expression of n-WASP from the cells and subsequently used the cells in our testing. Briefly, the secondary structure (FIG. 2) of human nWASP was generated using Zuker's RNA mFold software. Three suitable sites for targeting within the nWASP mRNA were identified. […]

[3] = tolerance in db/db strain; assay type: in vivo, db/db mice; conditions: administered systemically (IP), efficacy study
Method: (§2) First, the main tolerance tests were conducted using the CD-1 athymic mice (Charles River Laboratories), owing to their slow and steady rate of growth and easier to observe changes in the skin (hairless) and other possible side effects. Briefly, CD-1 of 4-6 weeks old, 20 g in weight, were housed in filter topped cages. […] Both compounds were given at […] final concentration in 100 ul in volume. […] CD-1 were observed daily, weighed twice weekly. An additional tolerance and efficacy test was carried out using the db/db strain.
(§3) The diabetic strain of db/db was obtained from Harlan. 4-6 weeks old with body weight at 20 g were used. […] Briefly, after being housed for a week, the db/db mice were first ear-pieced using an ear puncher, in order to create a wound (hole) of 1 mm in diameter. The following day after wound creation, all the db/db were weighed, wound photographed using a digital camera. Treatment was given systemically (by IP injection) or topically (by manually applying the compounds in gel into the wound area). Both treatments were given every other day. Images were obtained weekly. The size of the wounds was determined using an image analysis software. Data are given in two ways:
Wiskostatin was first dissolved in DMSO at concentration of 5 mg/ml. The DMSO solution was then gradually diluted in BSS in order to avoid precipitation. […]

HaCaT cells [4] = assay: growth of HaCaT cells; assay type: cell-based, human
HECV cells = assay: endothelial tubule forming assay, HECV wild type (negative for nWASP); assay type: cell-based, human; conditions: HECV cells negative for nWASP expression
wound in db/db mice = assay: in vivo efficacy test, wound healing (ear punch wound); conditions: for size of wounds vs control: after three weeks
Description: as §3
1. the area of the wounds in pixels. Two sample student t test was used for statistical analysis. 2. change of the size of wound over the starting point calculated using: (area at a given point—area at the starting point)/(area of the starting point)×100. Bonferroni model was used for data analysis.
Wiskostatin was first dissolved in DMSO at concentration of 5 mg/ml. The DMSO solution was then gradually diluted in BSS in order to avoid precipitation. The solutions were prepared such that each 100 ul contained the correct amount of compounds and was aliquatted and stored at −20° C. until used. The compounds were injected every other day by the IP route. […] Treatment was given every other working day (Monday, Wednesday and Friday) and the images obtained on Wednesday.
For topical application, we used two conventional carrier gels (purchased from Pharmacy of University Hospital of Wales) that are currently used in wound care. […] For use, a small amount (150 ul) of the gel was applied to the wound area and gently rubbed in using fingers. Treatment was given every other working day (Monday, Wednesday and Friday) and the images obtained on Wednesday.

[5] = in vivo tolerance test in CD-1 athymic mice; conditions: intraperitoneal, daily, 1 and 10 uM, two weeks
Method: as §2

[6] = tested on: HECV cells transfected and forced to express nWASP; assay: endothelial tubule forming assay, HECV forced to express nWASP; assay type: cell-based, human; conditions: nWASP expressing HECV cells, after 48 hours
nWASP mRNA = assay: knock down of nWASP mRNA in HaCaT cells by anti-nWASP transgenes (RT-PCR); assay type: cell-based, human; conditions: HaCaT cells after transfection (electroporation)
Description: as §1, with “Written informed consent was obtained from each patient who agreed for a biopsy to be taken. Tissues were frozen sectioned on a cryostat (Leica). A portion of the sections were kept for histological analysis. Approximate 20 sections were pooled and homogenised using a hand-held homogenizer using a procedure to extract RNA from the tissues.” left out, “Abnormal/chronic wound tissues were from patients with abnormal/chronic leg ulcers. Acute wound tissues were obtained from patients with acute surgical wounds after undergoing excision of pilonidal disease. Normal tissues were from normal volunteer's normal skin. • 2.” left out

CN(C)C[C@H](O)Cn1c2ccc(Br)cc2c2cc(Br)ccc21 (racemic) [Wiskostatin]
adhesiveness of HaCaT cells to matrix surface (HaCaT cells [1]; Wiskostatin 1, 10, 100 nM, 400, 4,000, 40,000 Hz, particularly at 40,000 Hz): increased the adhesiveness
HGF-induced adhesiveness of HaCaT cells (HaCaT cells [1]; with HGF 40 ng/ml, Wiskostatin 1, 10, 100 nM): further increased the adhesiveness
resistance following wounding (migration) (HaCaT cells [2]; 1 nM): rapid rise of resistance
resistance following wounding (migration) (HaCaT cells [2]; 10 nM): rapid rise of resistance
migration of HaCaT cells (HaCaT cells [2]; electric wounding assay): Increased the Migration
side effects [3]: without Producing any Side Effects
growth of HaCaT cells (HaCaT cells [4]): limited inhibitory effect on the growth and only at a high concentration
effective concentrations relative to those causing toxicity and growth changes (HaCaT cells [4]; all effects on cell functions): far below those that may cause toxicity and growth changes
tubule formation (HECV cells): neither 187-1 nor Wiskostatin had a major impact
size of wounds vs control (wound in db/db mice; Wiskostatin systemic 1 μM, p=0.017): significantly reduced the size of the wounds; also recorded: significant reduction of the size of wound
size of wounds vs control (wound in db/db mice; Wiskostatin systemic 10 μM, p=0.04): significantly reduced the size of the wounds; also recorded: significant reduction of the size of wound
size of wounds vs control (wound in db/db mice; Wiskostatin topical-A gel, p=0.044): significant effect
size of wounds vs control (wound in db/db mice; Wiskostatin topical-B gel, p=0.044): significant effect
wound healing (wound in db/db mice; administered systemically (IP), every other day): Significantly Accelerated Wound Healing
wound healing (wound in db/db mice; administered topically in gel): Significant Effect
tolerability [5]: Well Tolerated

HGF: recombinant human HGF, cell migration inducer / positive control
adhesiveness of HaCaT cells (HaCaT cells [1]; HGF 40 ng/ml alone vs control cells): increased the adhesiveness
migration of control HaCaT cells (HaCaT cells [2]; HGF 40 ng/ml): increased the migration of control HaCaT cells
migration of nWASP transgene carrying HaCaT cells (HaCaT cells [2]; HGF 40 ng/ml): some limited effect

Wiskostatin
tubule forming [6]: strong stimulatory effect on tubule forming

B1: transgene-1: anti-nWASP antisense-hammerhead ribozyme/RNA transgene, SEQ ID NO 17, cloned into pEF6/V5/His TOPO (nucleic acid, listed as Homo sapiens)
DNA: CTGCAGGAGTTCTTTGACCACATACAGTTCCCTGATGAGTCCGTGAGGACGAAATCTGCTGCATATAACTGCACCACACTAGT
knocking down nWASP mRNA/transcript (nWASP mRNA): active in knocking down

B2: transgene-2: anti-nWASP antisense-hammerhead ribozyme/RNA transgene, SEQ ID NO 18, cloned into pEF6/V5/His TOPO (nucleic acid, listed as Homo sapiens)
DNA: CTGCAGACAAGCAACACCACTGCACTTCTTTCTGATGAGTCCGTGAGGACGAAACCACATACAGTTCCGATCTGCTGCATATAACTAGT
cell migration of transfected HaCaT cells (HaCaT cells [2]): dramatic increase in cell migration
knocking down nWASP mRNA/transcript (nWASP mRNA): active in knocking down; also recorded: highly active

B3: transgene-3: anti-nWASP antisense-hammerhead ribozyme/RNA transgene, SEQ ID NO 19, cloned into pEF6/V5/His TOPO (nucleic acid, listed as Homo sapiens)
DNA: CTGCAGGTGCAGCTGTGGGAGCTCTTCTGATGAGTCCGTGAGGACGAAAAGGTGGTGGGGGAGGAGCGCCTCTTCCCCTAGCCTAGT
cell migration of transfected HaCaT cells (HaCaT cells [2]): dramatic increase in cell migration
